In ChEMBL document CHEMBL4118122, “Identification and biological evaluation of thiazole-based inverse agonists of RORγt” (Bioorg Med Chem Lett, 2018):

What was measured:
[1] = molecular target: Vasopressin V1a receptor (Homo sapiens, UniProt P37288); experiment: Displacement of [3H]AVP from human recombinant V1a receptor at 1 uM after 60 mins by scintillation counting analysis relative to control
[2] = Thermodynamic solubility of the compound in 30 mM phosphate buffer at 10 mM at pH 7 after 2 to 5 days by UV-HPLC analysis; format: physicochemical; conditions: read-out: Therm_solubility
[3] = molecular target: Cytochrome P450 2C9 (Homo sapiens, UniProt P11712); experiment: Inhibition of CYP2C9 (unknown origin); format: ADME
[4] = molecular target: Aurora kinase A (Homo sapiens) (UniProt O14965); experiment: Inhibition of recombinant full length His-tagged human Aurora A expressed in baculovirus expression system at 10 uM in presence of ATP relative to control
[5] = molecular target: C-C chemokine receptor type 1 (Homo sapiens, UniProt P32246); experiment: Displacement of [125I]MIP-1alpha from human recombinant CCR1 receptor after 120 mins by scintillation counting analysis
Chain of C-C chemokine receptor type 1 (P32246 whole entry): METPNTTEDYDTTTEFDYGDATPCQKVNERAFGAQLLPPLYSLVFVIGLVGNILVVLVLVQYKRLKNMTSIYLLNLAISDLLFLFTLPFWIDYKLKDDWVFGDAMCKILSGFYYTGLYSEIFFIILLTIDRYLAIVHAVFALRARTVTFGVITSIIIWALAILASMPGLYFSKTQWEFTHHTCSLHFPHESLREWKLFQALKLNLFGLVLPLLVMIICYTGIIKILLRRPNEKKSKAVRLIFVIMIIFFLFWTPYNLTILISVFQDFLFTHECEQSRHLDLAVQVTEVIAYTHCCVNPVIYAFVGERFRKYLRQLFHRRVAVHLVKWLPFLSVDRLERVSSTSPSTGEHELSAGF

[6] = molecular target: Endothelin-1 receptor (Homo sapiens, UniProt P25101); experiment: Displacement of [125I]-endothelin-1 from human recombinant ETA receptor after 120 mins by scintillation counting analysis
[7] = molecular target: Platelet-derived growth factor receptor beta (Homo sapiens) (UniProt P09619); experiment: Inhibition of recombinant His-tagged human PDGFRbeta (558 to 1106 residues) cytoplasmic domain expressed in baculovirus expression system at 10 uM in presence of ATP relative to control
[8] = Oral bioavailability in Sprague-Dawley rat at 5 mg/kg; format: ADME, organism-based; conditions: in vivo
[9] = molecular target: cAMP-dependent protein kinase catalytic subunit alpha (Homo sapiens) (UniProt P17612); experiment: Inhibition of recombinant human His-tagged PRKACA expressed in Escherichia coli at 10 uM in presence of ATP relative to control
[10] = Cmax in Sprague-Dawley rat at 5 mg/kg, po; format: ADME, organism-based; set-up: dose 5 mg/kg, route oral; conditions: in vivo
[11] = molecular target: Adenosine receptor A3 (Homo sapiens) (UniProt P0DMS8); experiment: Displacement of [125I]AB-MECA from human recombinant adenosine A3 receptor at 10 uM after 120 mins by scintillation counting analysis relative to control
[12] = molecular target: 5-hydroxytryptamine receptor 1A (Homo sapiens) (UniProt P08908); experiment: Displacement of [3H]8-OH-DPAT from recombinant human 5-HT1A receptor at 10 uM after 60 mins by scintillation counting analysis relative to control
[13] = molecular target: Neuropeptide Y receptor type 2 (Homo sapiens, UniProt P49146); experiment: Displacement of [125I]peptide YY from human Y2 receptor after 120 mins by scintillation counting analysis
[14] = molecular target: Galanin receptor type 2 (Homo sapiens) (UniProt O43603); experiment: Displacement of [125I]-endothelin-1 from human recombinant GAL2 receptor at 1 uM after 120 mins by scintillation counting analysis relative to control
[15] = molecular target: Tyrosine-protein kinase JAK2 (Homo sapiens) (UniProt O60674); experiment: Inhibition of recombinant GST-tagged human JAK2 catalytic domain (809 to 1153 residues) expressed in baculovirus expression system at 10 uM in presence of ATP relative to control
Chain of Tyrosine-protein kinase JAK2 (Homo sapiens) (O60674 whole entry, the tested form may be a part): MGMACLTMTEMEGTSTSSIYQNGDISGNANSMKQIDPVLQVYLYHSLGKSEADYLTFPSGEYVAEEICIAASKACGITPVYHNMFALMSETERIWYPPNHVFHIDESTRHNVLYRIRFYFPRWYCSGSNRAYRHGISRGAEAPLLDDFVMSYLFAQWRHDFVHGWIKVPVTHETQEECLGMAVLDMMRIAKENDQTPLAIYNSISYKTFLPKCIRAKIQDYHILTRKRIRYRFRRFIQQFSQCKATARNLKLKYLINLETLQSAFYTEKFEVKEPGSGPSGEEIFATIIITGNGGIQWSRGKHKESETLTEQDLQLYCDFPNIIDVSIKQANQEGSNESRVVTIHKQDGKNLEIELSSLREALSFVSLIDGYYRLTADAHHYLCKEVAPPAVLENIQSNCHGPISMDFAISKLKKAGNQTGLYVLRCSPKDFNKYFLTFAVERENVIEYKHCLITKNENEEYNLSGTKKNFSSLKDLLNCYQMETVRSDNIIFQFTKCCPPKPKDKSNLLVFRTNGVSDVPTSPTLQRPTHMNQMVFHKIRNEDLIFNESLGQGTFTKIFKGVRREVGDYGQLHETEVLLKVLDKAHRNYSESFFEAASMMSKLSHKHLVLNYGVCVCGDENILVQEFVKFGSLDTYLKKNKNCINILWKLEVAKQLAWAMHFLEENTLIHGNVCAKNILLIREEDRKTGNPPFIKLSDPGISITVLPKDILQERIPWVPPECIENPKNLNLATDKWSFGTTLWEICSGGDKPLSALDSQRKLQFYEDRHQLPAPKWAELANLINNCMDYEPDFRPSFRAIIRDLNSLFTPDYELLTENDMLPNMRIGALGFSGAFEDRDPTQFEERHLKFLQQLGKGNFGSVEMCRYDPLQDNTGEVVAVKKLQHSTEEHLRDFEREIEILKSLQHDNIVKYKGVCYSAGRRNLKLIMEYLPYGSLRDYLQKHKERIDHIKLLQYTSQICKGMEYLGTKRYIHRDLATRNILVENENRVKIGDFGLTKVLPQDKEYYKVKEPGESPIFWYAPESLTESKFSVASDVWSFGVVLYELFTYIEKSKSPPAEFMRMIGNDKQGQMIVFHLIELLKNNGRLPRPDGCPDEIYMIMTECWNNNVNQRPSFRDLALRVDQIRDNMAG

[16] = molecular target: Endothelin-1 receptor (Homo sapiens) (UniProt P25101); experiment: Displacement of [125I]-endothelin-1 from human recombinant ETA receptor at 10 uM after 120 mins by scintillation counting analysis relative to control
[17] = molecular target: Adenosine receptor A1 (Homo sapiens) (UniProt P30542); experiment: Displacement of [3H]-DPCPX from human recombinant adenosine A1 receptor at 10 uM after 60 mins by scintillation counting analysis relative to control
[18] = molecular target: Neuromedin-K receptor (Homo sapiens) (UniProt P29371); experiment: Displacement of [3H]SR 142801 from human recombinant NK3 receptor at 1 uM after 120 mins by scintillation counting analysis relative to control
[19] = molecular target: D(1A) dopamine receptor (Homo sapiens, UniProt P21728); experiment: Displacement of [3H]-SCH 23390 from human recombinant dopamine D1 receptor after 60 mins by scintillation counting analysis
[20] = molecular target: Somatostatin receptor (Mus musculus) (UniProt P30935+O08858+P30875+P30873+P49660); experiment: Displacement of [125I]Tyr11-somatostatin-14 from mouse SST receptor at 10 uM after 60 mins by scintillation counting analysis relative to control; format: protein assay
Chain of Somatostatin receptor (Mus musculus) (P30935 whole entry): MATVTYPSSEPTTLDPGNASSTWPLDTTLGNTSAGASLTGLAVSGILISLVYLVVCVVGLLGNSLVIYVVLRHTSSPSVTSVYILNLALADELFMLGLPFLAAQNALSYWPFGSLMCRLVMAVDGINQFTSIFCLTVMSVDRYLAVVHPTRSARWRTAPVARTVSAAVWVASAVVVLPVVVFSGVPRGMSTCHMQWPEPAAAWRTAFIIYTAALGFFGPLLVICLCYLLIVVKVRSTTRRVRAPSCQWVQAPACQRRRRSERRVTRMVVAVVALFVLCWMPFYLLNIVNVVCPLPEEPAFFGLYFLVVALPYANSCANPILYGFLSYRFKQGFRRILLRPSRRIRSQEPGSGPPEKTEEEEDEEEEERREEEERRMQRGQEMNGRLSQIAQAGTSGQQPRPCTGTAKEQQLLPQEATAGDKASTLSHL
Chain of Somatostatin receptor (Mus musculus) (O08858 whole entry): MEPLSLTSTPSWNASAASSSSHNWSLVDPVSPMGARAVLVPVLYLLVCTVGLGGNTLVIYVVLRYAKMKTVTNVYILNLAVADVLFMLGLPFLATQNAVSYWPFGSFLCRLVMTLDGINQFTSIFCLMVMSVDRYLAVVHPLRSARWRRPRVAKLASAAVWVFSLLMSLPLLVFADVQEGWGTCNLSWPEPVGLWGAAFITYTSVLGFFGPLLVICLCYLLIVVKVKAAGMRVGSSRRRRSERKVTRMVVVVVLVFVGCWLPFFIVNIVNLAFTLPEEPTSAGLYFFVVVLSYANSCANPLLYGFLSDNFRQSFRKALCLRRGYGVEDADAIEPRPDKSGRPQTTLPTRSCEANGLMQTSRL
Chain of Somatostatin receptor (Mus musculus) (P30875 whole entry): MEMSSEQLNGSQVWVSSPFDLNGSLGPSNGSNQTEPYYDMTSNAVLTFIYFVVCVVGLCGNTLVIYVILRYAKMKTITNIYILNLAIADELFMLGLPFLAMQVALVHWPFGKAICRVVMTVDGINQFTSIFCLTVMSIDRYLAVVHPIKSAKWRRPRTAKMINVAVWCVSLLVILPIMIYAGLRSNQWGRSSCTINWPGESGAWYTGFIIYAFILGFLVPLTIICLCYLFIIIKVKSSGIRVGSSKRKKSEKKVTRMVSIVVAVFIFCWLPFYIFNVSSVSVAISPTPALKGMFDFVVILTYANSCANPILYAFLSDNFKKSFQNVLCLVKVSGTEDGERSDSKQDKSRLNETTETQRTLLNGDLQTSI
Chain of Somatostatin receptor (Mus musculus) (P30873 whole entry): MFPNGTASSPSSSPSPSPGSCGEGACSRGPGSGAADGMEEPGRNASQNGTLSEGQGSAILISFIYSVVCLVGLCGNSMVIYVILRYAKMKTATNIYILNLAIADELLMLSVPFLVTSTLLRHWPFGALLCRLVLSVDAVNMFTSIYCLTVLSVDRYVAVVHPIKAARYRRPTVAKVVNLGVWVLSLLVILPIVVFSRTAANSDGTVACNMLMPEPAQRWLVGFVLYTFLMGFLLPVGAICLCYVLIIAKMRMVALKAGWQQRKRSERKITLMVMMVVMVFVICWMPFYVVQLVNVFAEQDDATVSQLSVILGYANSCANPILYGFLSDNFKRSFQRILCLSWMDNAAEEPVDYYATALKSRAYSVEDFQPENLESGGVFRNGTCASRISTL
Chain of Somatostatin receptor (Mus musculus) (P49660 with tags, fused parts or gaps): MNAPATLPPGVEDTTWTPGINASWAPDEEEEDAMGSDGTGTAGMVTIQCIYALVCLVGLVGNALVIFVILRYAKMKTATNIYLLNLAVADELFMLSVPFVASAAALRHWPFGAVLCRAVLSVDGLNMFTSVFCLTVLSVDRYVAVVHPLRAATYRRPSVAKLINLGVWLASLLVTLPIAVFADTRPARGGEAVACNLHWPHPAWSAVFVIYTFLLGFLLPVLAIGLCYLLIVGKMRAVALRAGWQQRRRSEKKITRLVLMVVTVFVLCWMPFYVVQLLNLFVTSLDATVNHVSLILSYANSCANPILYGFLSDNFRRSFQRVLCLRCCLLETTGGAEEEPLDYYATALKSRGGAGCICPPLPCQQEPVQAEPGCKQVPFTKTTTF

[21] = molecular target: 5-hydroxytryptamine receptor 2A (Homo sapiens, UniProt P28223); experiment: Displacement of [3H]ketanserin human recombinant 5-HT2A receptor after 60 mins by scintillation counting analysis
[22] = AUC (0 to infinity) in Sprague-Dawley rat at 1 mg/kg, iv; format: ADME, organism-based; set-up: dose 1 mg/kg, time infinity, route intravenous; conditions: in vivo
[23] = molecular target: Calcium/calmodulin-dependent protein kinase type 1D (Homo sapiens) (UniProt Q8IU85); experiment: Inhibition of CaMK1delta (unknown origin) at 10 uM in presence of ATP relative to control
Chain of Calcium/calmodulin-dependent protein kinase type 1D (Homo sapiens) (Q8IU85 whole entry, looked up): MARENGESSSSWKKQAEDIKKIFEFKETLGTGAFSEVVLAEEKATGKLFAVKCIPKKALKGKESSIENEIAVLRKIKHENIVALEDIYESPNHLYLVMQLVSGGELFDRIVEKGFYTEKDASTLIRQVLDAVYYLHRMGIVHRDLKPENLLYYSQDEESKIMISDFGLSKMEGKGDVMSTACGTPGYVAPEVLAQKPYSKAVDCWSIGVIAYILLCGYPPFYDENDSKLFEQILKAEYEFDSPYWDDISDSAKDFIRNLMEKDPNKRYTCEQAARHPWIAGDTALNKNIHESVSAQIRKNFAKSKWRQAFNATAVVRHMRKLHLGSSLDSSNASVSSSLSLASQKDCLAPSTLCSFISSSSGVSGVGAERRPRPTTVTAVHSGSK

[24] = molecular target: Mitogen-activated protein kinase 12 (Homo sapiens) (UniProt P53778); experiment: Inhibition of recombinant full length His-tagged human p38gamma expressed in baculovirus expression system at 10 uM in presence of ATP relative to control
[25] = molecular target: Cytochrome P450 2C19 (Homo sapiens, UniProt P33261); experiment: Inhibition of CYP2C19 (unknown origin); format: ADME
[26] = molecular target: Muscarinic acetylcholine receptor M2 (Homo sapiens) (UniProt P08172); experiment: Displacement of [3H]AF-DX 384 from human recombinant M2 receptor at 10 uM after 60 mins by scintillation counting analysis relative to control
[27] = molecular target: Dual specificity protein kinase CLK2 (Homo sapiens) (UniProt P49760); experiment: Inhibition of recombinant GST-tagged human CLK2 catalytic domain (137 to 498 residues) expressed in baculovirus expression system at 10 uM in presence of ATP relative to control
Chain of Dual specificity protein kinase CLK2 (Homo sapiens) (P49760 whole entry, looked up, the tested form may be a part): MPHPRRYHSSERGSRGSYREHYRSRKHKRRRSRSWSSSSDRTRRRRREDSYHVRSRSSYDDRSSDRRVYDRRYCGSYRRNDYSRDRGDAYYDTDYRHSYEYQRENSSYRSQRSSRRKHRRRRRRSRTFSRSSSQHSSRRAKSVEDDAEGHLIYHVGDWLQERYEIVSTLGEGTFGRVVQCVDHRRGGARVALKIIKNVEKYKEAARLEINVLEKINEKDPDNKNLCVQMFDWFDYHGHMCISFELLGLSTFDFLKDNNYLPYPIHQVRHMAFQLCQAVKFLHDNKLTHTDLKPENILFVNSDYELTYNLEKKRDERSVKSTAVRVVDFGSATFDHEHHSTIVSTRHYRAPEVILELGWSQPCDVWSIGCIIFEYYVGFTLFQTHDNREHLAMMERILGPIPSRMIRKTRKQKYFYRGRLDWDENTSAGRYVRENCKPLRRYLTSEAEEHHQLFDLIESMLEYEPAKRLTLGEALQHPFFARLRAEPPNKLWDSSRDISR

[28] = Displacement of [125I]alpha-dendrotoxin from rat brain voltage-gated K channel after 60 mins by scintillation counting analysis
[29] = molecular target: C-X-C chemokine receptor type 2 (Homo sapiens) (UniProt P25025); experiment: Displacement of [125I]IL-8 from human recombinant CXCR2 receptor at 10 uM after 60 mins by scintillation counting analysis relative to control
[30] = molecular target: Melanocortin receptor 4 (Homo sapiens, UniProt P32245); experiment: Displacement of [125I]NDP-alpha -MSH from human recombinant MC4 receptor at 10 uM after 120 mins by scintillation counting analysis relative to control
[31] = molecular target: B2 bradykinin receptor (Homo sapiens) (UniProt P30411); experiment: Displacement of [3H]bradykinin from human recombinant B2 receptor at 10 uM after 60 mins by scintillation counting analysis relative to control

Chain of Vasopressin V1a receptor (P37288 whole entry, looked up): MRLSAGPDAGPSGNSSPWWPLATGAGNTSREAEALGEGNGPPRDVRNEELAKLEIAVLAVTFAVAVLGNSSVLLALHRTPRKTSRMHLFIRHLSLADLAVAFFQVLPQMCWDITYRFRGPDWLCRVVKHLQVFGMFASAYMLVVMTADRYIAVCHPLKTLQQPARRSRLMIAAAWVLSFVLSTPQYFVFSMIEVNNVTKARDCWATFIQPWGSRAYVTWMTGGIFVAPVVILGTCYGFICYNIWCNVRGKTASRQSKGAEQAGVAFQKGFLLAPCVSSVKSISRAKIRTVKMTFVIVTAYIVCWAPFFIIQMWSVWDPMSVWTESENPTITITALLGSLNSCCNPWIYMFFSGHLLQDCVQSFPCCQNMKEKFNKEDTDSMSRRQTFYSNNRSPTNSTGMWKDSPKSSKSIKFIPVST

`CC(C)(C)NS(=O)(=O)c1ccc(-c2sc(C(=O)N[C@H]3C[C@H](C(=O)O)C3)nc2CC2CCCCC2)c2ccccc12` gave an inhibition [1] of under 10%, a solubility thermodynamic at 10000 µM [2] of under 1 µM and an INH [3] of 9.9 µM. For the same compound, the inhibition [4] was -5%, the IC50 [5] was 0.081 nM and the IC50 [6] was 0.023 nM. It also gave an inhibition [7] of -4%, a bioavailability [8] of 20% and an inhibition [9] of -4%. It also gave a Cmax [10] of 130 ng/mL, an inhibition [11] of 81% and an inhibition [12] of 16%. The IC50 [13] was 0.28 nM, the inhibition [14] was under 10% and the inhibition [15] was 2%. It also gave an inhibition [16] of under 10%, an inhibition [17] of under 10% and an inhibition [18] of under 10%. The IC50 [19] was 0.21 nM, the inhibition [20] was under 10% and the IC50 [21] was 0.64 nM. The AUC(0-inf) [22] was 325 ng·h/mL, the inhibition [23] was 11% and the inhibition [24] was -2%. It also gave an INH [25] of over 10 µM, an inhibition [26] of 12% and an inhibition [27] of -1%. For the same compound, the IC50 [28] was 0.22 nM, the inhibition [29] was 24% and the inhibition [30] was 25%. It also gave an inhibition [31] of under 10%.
